System: 857933-349-R-J2-PDC complex spheroid viability
Assay: Anticancer human tumor 857933-349-R-J2-PDC patient-derived colon adenocarcinoma cell line growth inhibition [POLQ]
Details: for IC50: curve of first compound; for viability, T/C: stronger effect = lower value
Method in brief: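 PDC + HUVEC + MSC complex spheroids; POLQ inhibitors ± partner drugs; top conc. at/near clinical Cmax, else 10 microM (SN-38 1 microM), half-log dilutions; 37 degrees C, 5% CO2.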

[1] = second compound 0.0316 µM, first compound 0.0316 µM
[2] = second compound 0.0316 µM, first compound 0.1 µM
[3] = second compound 0.0316 µM, first compound 0.316 µM
[4] = second compound 0.0316 µM, first compound 1 µM
[5] = second compound 0.0316 µM, first compound 3.16 µM
[6] = second compound 0.0316 µM, first compound 10 µM
[7] = second compound 0.1 µM, first compound 0.0316 µM
[8] = second compound 0.1 µM, first compound 0.1 µM
[9] = second compound 0.1 µM, first compound 0.316 µM
[10] = second compound 0.1 µM, first compound 1 µM
[11] = second compound 0.1 µM, first compound 3.16 µM
[12] = second compound 0.1 µM, first compound 10 µM
[13] = second compound 0.316 µM, first compound 0.0316 µM
[14] = second compound 0.316 µM, first compound 0.1 µM
[15] = second compound 0.316 µM, first compound 0.316 µM
[16] = second compound 0.316 µM, first compound 1 µM
[17] = second compound 0.316 µM, first compound 3.16 µM
[18] = second compound 0.316 µM, first compound 10 µM
[19] = second compound 1 µM, first compound 0.0316 µM
[20] = second compound 1 µM, first compound 0.1 µM
[21] = second compound 1 µM, first compound 0.316 µM
[22] = second compound 1 µM, first compound 1 µM
[23] = second compound 1 µM, first compound 3.16 µM
[24] = second compound 1 µM, first compound 10 µM
[25] = second compound 3.16 µM, first compound 0.0316 µM
[26] = second compound 3.16 µM, first compound 0.1 µM
[27] = second compound 3.16 µM, first compound 0.316 µM
[28] = second compound 3.16 µM, first compound 1 µM
[29] = second compound 3.16 µM, first compound 3.16 µM
[30] = second compound 3.16 µM, first compound 10 µM
[31] = second compound 10 µM, first compound 0.0316 µM
[32] = second compound 10 µM, first compound 0.1 µM
[33] = second compound 10 µM, first compound 0.316 µM
[34] = second compound 10 µM, first compound 1 µM
[35] = second compound 10 µM, first compound 3.16 µM
[36] = second compound 10 µM, first compound 10 µM
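Note: spheroids exposed to compounds for seven days before readout.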

For C#Cc1c(F)ccc2cc(O)cc(-c3ncc4c(N5CC6CCC(C5)N6)nc(OCC56CCCN5CC(F)C6)nc4c3F)c12 (stereo unspecified) + COC1C(OC(N)=O)C(O)C(Oc2ccc3c(O)c(NC(=O)c4ccc(O)c(CC=C(C)C)c4)c(=O)oc3c2C)OC1(C)C, the IC50 (second compound 0.0316 µM) was over 10 µM, the IC50 (second compound 0.1 µM) was over 10 µM and the IC50 (second compound 0.316 µM) was over 10 µM. For the same compound, the IC50 (second compound 1 µM) was over 10 µM, the IC50 (second compound 3.16 µM) was over 10 µM and the IC50 (second compound 10 µM) was over 10 µM. The viability, T/C [1] was 106%, the viability, T/C [2] was 94.9% and the viability, T/C [3] was 92.3%. It also gave a viability, T/C [4] of 79.2%, a viability, T/C [5] of 70.8% and a viability, T/C [6] of 99.2%. For the same compound, the viability, T/C [7] was 102%, the viability, T/C [8] was 102% and the viability, T/C [9] was 94%. The viability, T/C [10] was 80.7%, the viability, T/C [11] was 86.6% and the viability, T/C [12] was 92.2%. The viability, T/C [13] was 98%, the viability, T/C [14] was 96.7% and the viability, T/C [15] was 81.2%. The viability, T/C [16] was 88.6%, the viability, T/C [17] was 84.9% and the viability, T/C [18] was 78.1%. It also gave a viability, T/C [19] of 114%, a viability, T/C [20] of 95.1% and a viability, T/C [21] of 79.3%. It also gave a viability, T/C [22] of 82.3%, a viability, T/C [23] of 95.5% and a viability, T/C [24] of 90.8%. For the same compound, the viability, T/C [25] was 96.4%, the viability, T/C [26] was 98.6% and the viability, T/C [27] was 96%. It also gave a viability, T/C [28] of 119%, a viability, T/C [29] of 88.1% and a viability, T/C [30] of 94.5%. The viability, T/C [31] was 98.3%, the viability, T/C [32] was 89.8% and the viability, T/C [33] was 93%. It also gave a viability, T/C [34] of 77.6%, a viability, T/C [35] of 85.4% and a viability, T/C [36] of 104%.
Work on CCCS(=O)(=O)Nc1ccc(F)c(C(=O)c2c[nH]c3ncc(-c4ccc(Cl)cc4)cc23)c1F + Nc1ccc(C#CCN(C(=O)Cc2ncc(C(F)(F)F)cc2C(F)(F)F)c2ccc(F)cc2)nn1 yielded an IC50 (second compound 0.0316 µM) of 6.17 µM, an IC50 (second compound 0.1 µM) of 6.22 µM and an IC50 (second compound 0.316 µM) of 5.99 µM. For the same compound, the IC50 (second compound 1 µM) was 6.43 µM, the IC50 (second compound 3.16 µM) was 6.48 µM and the IC50 (second compound 10 µM) was 6.48 µM. It also gave a viability, T/C [1] of 103%, a viability, T/C [2] of 102% and a viability, T/C [3] of 102%. For the same compound, the viability, T/C [4] was 102%, the viability, T/C [5] was 97.5% and the viability, T/C [6] was 15.6%. For the same compound, the viability, T/C [7] was 93.5%, the viability, T/C [8] was 112% and the viability, T/C [9] was 88.6%. The viability, T/C [10] was 104%, the viability, T/C [11] was 102% and the viability, T/C [12] was 14.9%. The viability, T/C [13] was 103%, the viability, T/C [14] was 89% and the viability, T/C [15] was 99.6%. It also gave a viability, T/C [16] of 91%, a viability, T/C [17] of 98.3% and a viability, T/C [18] of 12.9%. The viability, T/C [19] was 116%, the viability, T/C [20] was 93% and the viability, T/C [21] was 82.1%. The viability, T/C [22] was 106%, the viability, T/C [23] was 109% and the viability, T/C [24] was 17.9%. It also gave a viability, T/C [25] of 77.1%, a viability, T/C [26] of 97.2% and a viability, T/C [27] of 99.3%. The viability, T/C [28] was 96.8%, the viability, T/C [29] was 99.6% and the viability, T/C [30] was 23.3%. For the same compound, the viability, T/C [31] was 97.7%, the viability, T/C [32] was 90.7% and the viability, T/C [33] was 93.4%. The viability, T/C [34] was 86.5%, the viability, T/C [35] was 92% and the viability, T/C [36] was 24.6%.
Cn1ncnc1[C@H]1c2n[nH]c(=O)c3cc(F)cc(c23)N[C@@H]1c1ccc(F)cc1 + COC1C(OC(N)=O)C(O)C(Oc2ccc3c(O)c(NC(=O)c4ccc(O)c(CC=C(C)C)c4)c(=O)oc3c2C)OC1(C)C showed an IC50 (second compound 0.0316 µM) of over 0.1 µM, an IC50 (second compound 0.1 µM) of over 0.1 µM and an IC50 (second compound 0.316 µM) of over 0.1 µM. It also gave an IC50 (second compound 1 µM) of over 0.1 µM, an IC50 (second compound 3.16 µM) of over 0.1 µM and an IC50 (second compound 10 µM) of over 0.1 µM. For the same compound, the viability, T/C (second compound 0.0316 µM, first compound 0.000316 µM) was 76.1%, the viability, T/C (second compound 0.0316 µM, first compound 0.001 µM) was 95.3% and the viability, T/C (second compound 0.0316 µM, first compound 0.00316 µM) was 77.6%. For the same compound, the viability, T/C (second compound 0.0316 µM, first compound 0.01 µM) was 92.6%, the viability, T/C [1] was 90.5% and the viability, T/C [2] was 100%. The viability, T/C (second compound 0.1 µM, first compound 0.000316 µM) was 106%, the viability, T/C (second compound 0.1 µM, first compound 0.001 µM) was 88.8% and the viability, T/C (second compound 0.1 µM, first compound 0.00316 µM) was 102%. It also gave a viability, T/C (second compound 0.1 µM, first compound 0.01 µM) of 96.2%, a viability, T/C [7] of 96% and a viability, T/C [8] of 84.7%. The viability, T/C (second compound 0.316 µM, first compound 0.000316 µM) was 89.2%, the viability, T/C (second compound 0.316 µM, first compound 0.001 µM) was 98.7% and the viability, T/C (second compound 0.316 µM, first compound 0.00316 µM) was 98.9%. For the same compound, the viability, T/C (second compound 0.316 µM, first compound 0.01 µM) was 77.8%, the viability, T/C [13] was 93.1% and the viability, T/C [14] was 88.4%. For the same compound, the viability, T/C (second compound 1 µM, first compound 0.000316 µM) was 75.9%, the viability, T/C (second compound 1 µM, first compound 0.001 µM) was 93.4% and the viability, T/C (second compound 1 µM, first compound 0.00316 µM) was 76.4%. The viability, T/C (second compound 1 µM, first compound 0.01 µM) was 77.8%, the viability, T/C [19] was 97.7% and the viability, T/C [20] was 107%. The viability, T/C (second compound 3.16 µM, first compound 0.000316 µM) was 78.6%, the viability, T/C (second compound 3.16 µM, first compound 0.001 µM) was 100% and the viability, T/C (second compound 3.16 µM, first compound 0.00316 µM) was 95.3%. It also gave a viability, T/C (second compound 3.16 µM, first compound 0.01 µM) of 92.8%, a viability, T/C [25] of 87.8% and a viability, T/C [26] of 77.7%. For the same compound, the viability, T/C (second compound 10 µM, first compound 0.000316 µM) was 60.5%, the viability, T/C (second compound 10 µM, first compound 0.001 µM) was 94.8% and the viability, T/C (second compound 10 µM, first compound 0.00316 µM) was 101%. It also gave a viability, T/C (second compound 10 µM, first compound 0.01 µM) of 76.2%, a viability, T/C [31] of 94% and a viability, T/C [32] of 103%.
